Data from patent publication US11180510B2, “Xanthine derivatives and uses thereof as inhibitors of bromodomains of BET proteins” (Centre national de la recherche scientifique, priority 2017, dated 2021).

Biological target: BRD4(BD1) (Homo sapiens, UniProt O60885)
Experiment: HTRF assay, BRD4(BD1)/histone peptide interaction
Type: binding
Design: made in house
Details: HTRF; triplicates; NA = IC50 > maximal concentration of compound used
Description: HTRF assays were performed in white 384 Well Small Volume™ HiBase Polystyrene Microplates (Greiner) with a total working volume of 20 μL. Compounds were dispensed, with 100 nL per well (0.5% final DMSO), from a concentration stock of 10 mM in 100% DMSO and with serial DMSO dilutions, using an Echo® 550 robot from the Access Labcyte platform (Labcyte) and based on the transfer of liquid by acoustic wave. Then, 19.5 μL of buffer is added, using a Multidrop Combi (Thermo Fisher Scientific). […] All HTRF reagents (donor and acceptor) were purchased from CisBio Bioassays and reconstituted according to the supplier protocols. The peptide was purchased from Genic Bio Synthetic. The BRD4(1) protein was produced and purified in the laboratory.
Percentage of inhibition was calculated using the following equation: % inhibition=[(compound signal)−(min signal)]/[(max signal)−(min signal)]*100, where ‘max signal’ is the signal ratio with the compound vehicle alone (DMSO) and ‘min signal’ the signal ratio without peptide.
Selectivity profiles of bromodomain inhibitors were performed as described in HTRF screen section. […] HTRF detection reagents (EPIgeneous™ Binding Domain kits) were purchased from Cisbio Bioassays and used according to supplier's protocol. GST tagged bromodomain proteins were purchased from BPS Bioscience and histone peptide from Genic Bio Synthetic.

Structure (SMILES) | IC50
CCn1cnc2c1c(=O)[nH]c(=O)n2Cc1ccc(CNC(=O)[C@@H]2C[C@@H](c3ccccc3)CN2)cc1 [Compound 40c] | 13 µM
O=C1CCCc2cc(S(=O)(=O)NCC3CCC(C(=O)NCc4ccccn4)CC3)ccc2N1 (centres unmarked) [Compound 6a] | 29 µM
O=C1CCCc2cc(S(=O)(=O)NCc3ccc(C(=O)NCc4ccncc4)cc3)ccc2N1 [Compound 14c] | > 25 µM
CCCS(=O)(=O)NCc1ccc(Cn2c(=O)[nH]c(=O)c3c2ncn3CC)cc1 [Compound 20c] | 3.6 µM
CS(=O)(=O)NCC1CCC(C(=O)NCCc2cccs2)CC1 (centres unmarked) [Compound 8c] | 18 µM
CCn1cnc2c1c(=O)[nH]c(=O)n2Cc1ccc(CNC(=O)CCC2CC2)cc1 [Compound 33b] | 4.7 µM
CCn1cnc2c1c(=O)[nH]c(=O)n2Cc1ccc(CNS(=O)(=O)CCN2CCOCC2)cc1 [Compound 22a] | 4.5 µM
CCn1cnc2c1c(=O)[nH]c(=O)n2Cc1ccc(CNC(=O)[C@H](CC2CC2)NC(=O)OC(C)(C)C)cc1 [Compound 38c] | 5.5 µM
CCn1cnc2c1c(=O)[nH]c(=O)n2Cc1ccc(CNC(=O)C2CCN(C)C2)cc1 (centres unmarked) [Compound 34a] | 4.3 µM
O=C1CCCc2cc(S(=O)(=O)NCc3ccc(C(=O)NCc4ccccn4)cc3)ccc2N1 [Compound 14a] | > 25 µM
CCn1cnc2c1c(=O)[nH]c(=O)n2Cc1ccc(CNC(=O)C2CCCC(N)C2)cc1 (centres unmarked) [Compound 42b] | 32 µM
CCn1cnc2c1c(=O)[nH]c(=O)n2Cc1ccc(CNC(=O)C2CCC(CO)CC2)cc1 (centres unmarked) [Compound 35b] | 7 µM
CCC[C@H](N)C(=O)NCc1ccc(Cn2c(=O)[nH]c(=O)c3c2ncn3CC)cc1 [Compound 42a] | > 50 µM
CCCn1cc(C(=O)NCc2ccc(Cn3c(=O)[nH]c(=O)c4c3ncn4CC)cc2)cn1 [Compound 33c, N-(4-((7-ethyl-2,6-dioxo-1H-purin-3(2H,6H,7H)-yl)methyl)benzyl)-1-propyl-1H-pyrazole-4-carboxamide] | 4.5 µM
O=C1CCCc2cc(S(=O)(=O)NCC3CCC(C(=O)NCc4ccncc4)CC3)ccc2N1 (centres unmarked) [Compound 6c] | 30 µM
CCn1cnc2c1c(=O)[nH]c(=O)n2Cc1ccc(CNC(=O)[C@@H](N)CC2CC2)cc1 [Compound 41b] | > 50 µM

The next lines start with the values.

IC50 | Structure (SMILES)
2.2 µM | CCn1cnc2c1c(=O)[nH]c(=O)n2Cc1ccc(CNC(=O)CCC(C)C)cc1 [Compound 36a]
1.3 µM | CCc1nc(S(=O)(=O)NCc2ccc(Cn3c(=O)[nH]c(=O)c4c3ncn4CC)cc2)cn1C [Compound 23c]
2 µM | CCn1cnc2c1c(=O)[nH]c(=O)n2Cc1ccc(CNC(=O)c2ccc(Oc3ccccc3)cc2)cc1 [Compound 37a]
1.7 µM | CCn1cnc2c1c(=O)[nH]c(=O)n2Cc1ccc(CNC(=O)[C@@H]2C[C@@H](c3ccccc3)CN2C(=O)OC(C)(C)C)cc1 [Compound 38a]
0.687 µM | CCn1cnc2c1c(=O)[nH]c(=O)n2Cc1ccc(CNS(=O)(=O)c2ccc(OC)cc2)cc1 [Compound 30b]
1.3 µM | CCn1cnc2c1c(=O)[nH]c(=O)n2Cc1ccc(CNS(=O)(=O)c2cc(-c3ccno3)ccc2C)cc1 [Compound 27a]
0.687 µM | CCn1cnc2c1c(=O)[nH]c(=O)n2Cc1ccc(CNS(=O)(=O)c2ccc(C)cc2)cc1 [Compound 28c]
1.4 µM | CCn1cnc2c1c(=O)[nH]c(=O)n2Cc1ccc(CNS(=O)(=O)CCc2ccccc2)cc1 [Compound 22c]
1.3 µM | CCn1cnc2c1c(=O)[nH]c(=O)n2Cc1ccc(CNS(=O)(=O)c2ccc([N+](=O)[O-])cc2)cc1 [Compound 28a]
1.8 µM | CCn1cnc2c1c(=O)[nH]c(=O)n2Cc1ccc(CNC(=O)[C@H](O)c2ccc(C)cc2)cc1 [Compound 35c]
1.4 µM | CCn1cnc2c1c(=O)[nH]c(=O)n2Cc1ccc(CNS(=O)(=O)CC2CCCC2)cc1 [Compound 21c]
0.723 µM | CCn1cnc2c1c(=O)[nH]c(=O)n2Cc1ccc(CNS(=O)(=O)c2cccc(NC(C)=O)c2)cc1 [Compound 31b]
3.5 µM | CCn1cnc2c1c(=O)[nH]c(=O)n2Cc1ccc(CNS(=O)(=O)c2cn(C)cn2)cc1 [Compound 23a]
